From patent US12122761B2, “2-azaspiro[3.4]octane derivatives as M4 agonists” (NOVARTIS AG, priority 2019, dated 2024)

What was measured:
Format in all cases: cell-based
[1] = target: T1, human cloned CHRM5 receptor (M5_CHO) (Homo sapiens, UniProt P08912); assay: CHRM5 Ca++ Flux Assay (agonist mode, FDSS 7000EX); settings: for EC50: agonist mode, geometric mean if tested more than once, read-out: M5 FDSS EC50
T1 construct: expressed in transfected cells; host or cells: CHO (M5_CHO)
T1 sequence (P08912 1-532): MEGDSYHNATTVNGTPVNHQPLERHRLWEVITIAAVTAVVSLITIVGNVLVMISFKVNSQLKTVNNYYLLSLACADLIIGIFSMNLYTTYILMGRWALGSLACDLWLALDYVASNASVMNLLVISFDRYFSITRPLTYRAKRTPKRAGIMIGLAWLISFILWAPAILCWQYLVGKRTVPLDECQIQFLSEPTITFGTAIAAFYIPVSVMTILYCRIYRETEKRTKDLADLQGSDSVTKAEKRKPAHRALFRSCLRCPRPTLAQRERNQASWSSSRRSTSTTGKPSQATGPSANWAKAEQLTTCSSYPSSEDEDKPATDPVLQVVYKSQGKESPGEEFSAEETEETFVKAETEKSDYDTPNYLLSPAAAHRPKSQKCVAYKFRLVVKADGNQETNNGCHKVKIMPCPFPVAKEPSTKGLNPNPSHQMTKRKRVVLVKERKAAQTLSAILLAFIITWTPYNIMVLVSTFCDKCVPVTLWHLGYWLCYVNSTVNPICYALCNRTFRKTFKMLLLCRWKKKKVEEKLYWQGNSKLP
Procedure, shortened: (§1)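 Fluorescent intracellular Ca++ signal, recorded for 3 min, served as read-out for CHO-K1 cells stably carrying human M3 or M5 receptor. Triplicate 11-point dose responses were averaged and fitted to a four-parameter model, with percent activity referenced to the carbachol EC100.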

[2] = target: T2, human cloned CHRM4 receptor (M4_CHO cells) (Homo sapiens, UniProt P08173); assay: CHRM4 Ca++ Flux Assay (agonist mode, FDSS 7000EX); settings: for EC50: geometric mean if tested more than once, read-out: M4 FDSS EC50
T2 construct: expressed in transfected cells; host or cells: CHO-K1
T2 sequence (P08173 1-479): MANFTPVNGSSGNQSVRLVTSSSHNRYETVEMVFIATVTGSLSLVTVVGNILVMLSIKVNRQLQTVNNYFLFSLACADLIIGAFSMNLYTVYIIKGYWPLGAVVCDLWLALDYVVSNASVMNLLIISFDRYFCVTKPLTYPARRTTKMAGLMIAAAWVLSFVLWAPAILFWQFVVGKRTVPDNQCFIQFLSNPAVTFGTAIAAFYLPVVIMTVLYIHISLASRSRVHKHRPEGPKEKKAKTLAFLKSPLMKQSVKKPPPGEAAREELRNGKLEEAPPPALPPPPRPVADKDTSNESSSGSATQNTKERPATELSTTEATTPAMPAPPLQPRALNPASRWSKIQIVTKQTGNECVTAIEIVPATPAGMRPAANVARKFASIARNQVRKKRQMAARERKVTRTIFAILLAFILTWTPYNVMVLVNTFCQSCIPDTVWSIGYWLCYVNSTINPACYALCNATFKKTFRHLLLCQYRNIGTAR
Procedure, shortened: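 M4_CHO cells loaded with a Ca++ dye for at least 1 h were held 60 min at room temperature in HEPES/probenecid buffer with 20 μM ATP. Ca++ flux after an 11-point compound dose, in triplicate and agonist mode, was recorded over 3 min. Four-parameter fits gave curves, with activity expressed relative to the Carbachol EC100.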

[3] = target: T3, human cloned CHRM3 receptor (M3_CHO cells) (Homo sapiens, UniProt P20309); assay: CHRM3 Ca++ Flux Assay (agonist mode, FDSS 7000EX); settings: for EC50: agonist mode, geometric mean if tested more than once, read-out: M3 FDSS EC50
T3 construct: expressed in transfected cells; host or cells: CHO-K1
T3 sequence (P20309 whole entry): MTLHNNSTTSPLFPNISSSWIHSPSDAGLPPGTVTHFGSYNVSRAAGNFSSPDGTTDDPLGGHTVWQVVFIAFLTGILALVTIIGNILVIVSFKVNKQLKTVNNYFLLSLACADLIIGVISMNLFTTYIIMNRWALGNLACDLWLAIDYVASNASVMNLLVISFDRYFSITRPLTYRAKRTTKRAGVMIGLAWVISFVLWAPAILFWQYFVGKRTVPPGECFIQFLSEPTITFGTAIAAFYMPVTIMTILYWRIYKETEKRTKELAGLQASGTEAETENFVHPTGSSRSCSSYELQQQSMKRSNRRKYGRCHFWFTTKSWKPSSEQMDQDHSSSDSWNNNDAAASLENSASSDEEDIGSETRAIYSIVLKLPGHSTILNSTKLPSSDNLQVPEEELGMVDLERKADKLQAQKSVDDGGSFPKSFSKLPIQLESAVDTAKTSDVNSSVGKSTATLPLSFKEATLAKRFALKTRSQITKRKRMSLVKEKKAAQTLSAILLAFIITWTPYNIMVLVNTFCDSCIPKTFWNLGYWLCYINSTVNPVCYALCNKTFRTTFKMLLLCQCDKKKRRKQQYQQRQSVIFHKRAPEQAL
Procedure, shortened: as §1

[4] = Percent Activity measured to EC100 of Carbachol

SMILES	M5 FDSS PA [1, 4] [%]	EC50 [1] [µM]	M4 FDSS PA ([2]; Percent Activity) [%]	EC50 [2] [µM]	M3 FDSS PA [3, 4] [%]	EC50 [3] [µM]	Emax ([1]; Percent Activity measured to EC100 of Carbachol, read-out: M5 FDSS PA) [%]	Emax ([2]; Percent Activity, read-out: M4 FDSS PA) [%]	Emax ([3]; Percent Activity measured to EC100 of Carbachol, read-out: M3 FDSS PA) [%]
FC(F)(F)Oc1ccccc1C1CCN([C@@H]2CCC3(C2)CN(c2ncco2)C3)CC1 (single isomer, unassigned) [Example 10K, (R)-2-(6-(4-(2-(trifluoromethoxy)phenyl)piperidin-1-yl)-2-azaspiro[3.4]octan-2-yl)oxazole or (S)-2-(6-(4-(2-(trifluoromethoxy)phenyl)piperidin-1-yl)-2-azaspiro[3.4]octan-2-yl)oxazole]	0	> 25	65	0.007	0	> 25			
FC(F)(F)Oc1ccccc1C1CCN([C@@H]2CCC3(C2)CN(c2ncco2)C3)CC1 (single isomer, unassigned) [Example 10L, (R)-2-(6-(4-(2-(trifluoromethoxy)phenyl)piperidin-1-yl)-2-azaspiro[3.4]octan-2-yl)oxazole or (S)-2-(6-(4-(2-(trifluoromethoxy)phenyl)piperidin-1-yl)-2-azaspiro[3.4]octan-2-yl)oxazole]	2	> 25	57	0.098	2	12.4			
FC(F)(F)Oc1ccccc1C1CCN([C@@H]2CCC3(C2)CN(c2nncs2)C3)CC1 (single isomer, unassigned) [Example 10M, (R)-2-(6-(4-(2-(trifluoromethoxy)phenyl)piperidin-1-yl)-2-azaspiro[3.4]octan-2-yl)-1,3,4-thiadiazole or (S)-2-(6-(4-(2-(trifluoromethoxy)phenyl)piperidin-1-yl)-2-azaspiro[3.4]octan-2-yl)-1,3,4-thiadiazole]	0	> 25	67	0.011	0	> 25			
FC(F)(F)Oc1ccccc1C1CCN([C@@H]2CCC3(C2)CN(c2nncs2)C3)CC1 (single isomer, unassigned) [Example 10N, (R)-2-(6-(4-(2-(trifluoromethoxy)phenyl)piperidin-1-yl)-2-azaspiro[3.4]octan-2-yl)-1,3,4-thiadiazole or (S)-2-(6-(4-(2-(trifluoromethoxy)phenyl)piperidin-1-yl)-2-azaspiro[3.4]octan-2-yl)-1,3,4-thiadiazole]	0	> 25	1	> 25	0	> 25			
O=C(N1CC2(CC[C@@H](N3CCC(c4cc(F)ccc4OC4CC5(COC5)C4)CC3)C2)C1)C1(F)CC1 (single isomer, unassigned) [Example 11A, (R)-(6-(4-(2-((2-oxaspiro[3.3]heptan-6-yl)oxy)-5-fluorophenyl)piperidin-1-yl)-2-azaspiro[3.4]octan-2-yl)(1-fluorocyclopropyl)methanone or (S)-(6-(4-(2-((2-oxaspiro[3.3]heptan-6-yl)oxy)-5-fluorophenyl)piperidin-1-yl)-2-azaspiro[3.4]octan-2-yl)(1-fluorocyclopropyl)methanone]	0	> 25	45	0.038	0	> 25			
Fc1ccc(OC2CC3(COC3)C2)c(C2CCN([C@@H]3CCC4(C3)CN(c3nnco3)C4)CC2)c1 [Example 1B, (R)-2-(6-(4-(2-((2-oxaspiro[3.3]heptan-6-yl)oxy)-5-fluorophenyl)piperidin-1-yl)-2-azaspiro[3.4]octan-2-yl)-1,3,4-oxadiazole]		> 25		0.001		> 25	0	69	0

Other lines, results leading:

M5 FDSS PA [1, 4] [%]	EC50 [1] [µM]	M4 FDSS PA ([2]; Percent Activity) [%]	EC50 [2] [µM]	M3 FDSS PA [3, 4] [%]	EC50 [3] [µM]	Emax ([1]; Percent Activity measured to EC100 of Carbachol, read-out: M5 FDSS PA) [%]	Emax ([2]; Percent Activity, read-out: M4 FDSS PA) [%]	Emax ([3]; Percent Activity measured to EC100 of Carbachol, read-out: M3 FDSS PA) [%]	SMILES
0	> 25	67	0.001	0	> 25				FC(F)Oc1ccccc1C1CCN([C@@H]2CCC3(C2)CN(c2nncs2)C3)CC1 (single isomer, unassigned) [Example 10O, (R)-2-(6-(4-(2-(difluoromethoxy)phenyl)piperidin-1-yl)-2-azaspiro[3.4]octan-2-yl)-1,3,4-thiadiazole or (S)-2-(6-(4-(2-(difluoromethoxy)phenyl)piperidin-1-yl)-2-azaspiro[3.4]octan-2-yl)-1,3,4-thiadiazole]
0	> 25	71	0.008	0	> 25				COc1ccccc1C1CCN([C@@H]2CCC3(C2)CN(c2ncns2)C3)CC1 (single isomer, unassigned) [Example 10Q, (R)-5-(6-(4-(2-methoxyphenyl)piperidin-1-yl)-2-azaspiro[3.4]octan-2-yl)-1,2,4-thiadiazole or (S)-5-(6-(4-(2-methoxyphenyl)piperidin-1-yl)-2-azaspiro[3.4]octan-2-yl)-1,2,4-thiadiazole]
0	> 25	36	0.122	0	> 25				COc1ccccc1C1CCN([C@@H]2CCC3(C2)CN(c2ncns2)C3)CC1 (single isomer, unassigned) [Example 10R, (R)-5-(6-(4-(2-methoxyphenyl)piperidin-1-yl)-2-azaspiro[3.4]octan-2-yl)-1,2,4-thiadiazole or (S)-5-(6-(4-(2-methoxyphenyl)piperidin-1-yl)-2-azaspiro[3.4]octan-2-yl)-1,2,4-thiadiazole]
0	> 25	51	0.002	0	> 25				O=C(N1CC2(CC[C@@H](N3CCC(c4cc(F)ccc4OC4CC5(COC5)C4)CC3)C2)C1)C1(F)CC1 (single isomer, unassigned) [Example 11B, (R)-(6-(4-(2-((2-oxaspiro[3.3]heptan-6-yl)oxy)-5-fluorophenyl)piperidin-1-yl)-2-azaspiro[3.4]octan-2-yl)(1-fluorocyclopropyl)methanone or (S)-(6-(4-(2-((2-oxaspiro[3.3]heptan-6-yl)oxy)-5-fluorophenyl)piperidin-1-yl)-2-azaspiro[3.4]octan-2-yl)(1-fluorocyclopropyl)methanone]
0	> 25	47	0.002	−1	> 25				O=C(N1CC2(CC[C@@H](N3CCC(c4ccccc4OC4CC5(COC5)C4)CC3)C2)C1)C1(F)CC1 (single isomer, unassigned) [Example 11C, (R)-(6-(4-(2-((2-oxaspiro[3.3]heptan-6-yl)oxy)phenyl)piperidin-1-yl)-2-azaspiro[3.4]octan-2-yl)(1-fluorocyclopropyl)methanone or (S)-(6-(4-(2-((2-oxaspiro[3.3]heptan-6-yl)oxy)phenyl)piperidin-1-yl)-2-azaspiro[3.4]octan-2-yl)(1-fluorocyclopropyl)methanone]
0	> 25	38	0.097	0	> 25				O=C(N1CC2(CC[C@@H](N3CCC(c4ccccc4OC4CC5(COC5)C4)CC3)C2)C1)C1(F)CC1 (single isomer, unassigned) [Example 11D, (R)-(6-(4-(2-((2-oxaspiro[3.3]heptan-6-yl)oxy)phenyl)piperidin-1-yl)-2-azaspiro[3.4]octan-2-yl)(1-fluorocyclopropyl)methanone or (S)-(6-(4-(2-((2-oxaspiro[3.3]heptan-6-yl)oxy)phenyl)piperidin-1-yl)-2-azaspiro[3.4]octan-2-yl)(1-fluorocyclopropyl)methanone]
